Laboratory results reported in patent US5514653A, “Method of blocking the SEC receptor” (Washington University, priority 1994, dated 1996).
“Also recorded” adds a separate entry of the source. Read-outs that look alike come from different tables or passages of the source. No end group written: not given here.

Experiments:
substance P receptor = substance P receptor (Homo sapiens, UniProt P25103); conditions: cited from earlier work
PC12 cells [1] = experiment: MTT assay of neurotoxicity in PC12 cells; assay type: cell-based; conditions: for effect on MTT reduction: FIG. 1 and 2
Procedure: (§1) The MTT assay (19) was used to monitor the neurotoxicity of amyloid-β peptide. […] Inhibition of MTT reduction is a specific, early indicator of amyloid-β-mediated cytotoxicity. The PC12 cell line was used because it is the most well characterized cell line of neuronal origin and because previous studies have shown there is abundant expression of SEC receptor in this cell line.
(§2) First, the effect of amyloid-β 25-35 on MTT reduction in PC12 cells was examined (FIG. 1). PC12 cells were incubated for six (6) hours at 37° C. with amyloid-β 25-35 in several different concentrations as shown on the horizontal axis. MTT was added and the cells incubated at 37° C. for another two (2) hours. Cell extraction buffer was added and the incubation continued at 37° C. overnight. Cell extracts were then subjected to spectro-photometric analysis at 570 nm.
Second, the specificity of the effect of amyloid-β 25-35 on MTT reduction in PC12 cells was examined (FIG. 2).
(§3) In the MTT assay used herein, inhibition of cellular redox activity is measured by 3- 4,5-dimethylthiazol-2-yl!-2,5-diphenyltetrazolium bromide (MTT) by conventional procedures as described by Hansen et al. (19).

neutrophils = conditions: cited from earlier work
SEC receptor [2] = conditions: cited from earlier work
PC12 cells [3] = experiment: Inhibition of amyloid-β 25-35 neurotoxicity (MTT assay) in PC12 cells; assay type: cell-based; conditions: FIG. 3 and 4
Source text: as §1, with “line. Using ^125 I peptide 105Y there is specific, saturable binding.” for “line.”
as §2, with “[…] Results” for “Cell extracts”, “reported as percent control response as determined by the difference between control cells and cells lysed prior” for “then subjected”, “incubation with MTT. […]” for “spectro-photometric analysis at 570 nm.”
as §3

neurons = conditions: cited from earlier work
SEC receptor [4] = experiment: Competition for binding to the SEC receptor

Chain of substance P receptor (P25103 whole entry, species assumed): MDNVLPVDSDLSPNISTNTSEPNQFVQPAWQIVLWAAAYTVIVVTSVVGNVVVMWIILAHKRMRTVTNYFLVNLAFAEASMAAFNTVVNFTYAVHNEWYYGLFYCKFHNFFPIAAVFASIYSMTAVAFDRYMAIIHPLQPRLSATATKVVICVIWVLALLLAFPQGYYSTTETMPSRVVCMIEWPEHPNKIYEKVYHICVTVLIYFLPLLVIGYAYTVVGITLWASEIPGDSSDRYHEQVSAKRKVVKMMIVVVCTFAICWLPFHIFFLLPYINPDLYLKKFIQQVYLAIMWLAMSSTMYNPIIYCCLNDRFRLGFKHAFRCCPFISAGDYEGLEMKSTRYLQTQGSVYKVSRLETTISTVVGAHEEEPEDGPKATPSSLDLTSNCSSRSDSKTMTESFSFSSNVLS

In the case of `CSCC[C@H](NC(=O)[C@H](CC(C)C)NC(=O)[C@H](Cc1cnc[nH]1)NC(=O)CNC(=O)[C@@H](NC(=O)[C@H](C)NC(=O)[C@H](Cc1c[nH]c2ccccc12)NC(=O)[C@H](CCC(N)=O)NC(=O)[C@H](CC(N)=O)NC(=O)CNC(=O)[C@H](CC(C)C)NC(=O)[C@H](CCCN=C(N)N)NC(=O)[C@H](CCC(N)=O)NC(=O)[C@@H]1CCC(=O)N1)C(C)C)C(N)=O` [bombesin], the “binding to / recognition by the substance P receptor” value (substance P receptor) is given as “does not recognize”.
In the case of “IAGRSLNPNRVTLRYNKPFILVLFETPGNSLVFLGRISNPATK [PB145]”, the “neurotoxic activity of the peptide by itself” value (PC12 cells [1]; peptide alone) is reported as “did not have any neurotoxic activity by itself”.
In the case of amyloid-β, the neutrophil chemotactic effect (neutrophils) is given as “neutrophil chemotactic effects”, the “binding to / recognition by the substance P receptor” value (substance P receptor) is given as “does not recognize” and the “binding to / recognition by the substance P receptor” value (substance P receptor; listed as Amyloid-β) is given as “do not bind to the substance P receptor”. The “binding to / recognition by the SEC receptor” value (SEC receptor [2]) was “bind to the SEC receptor”.
In the case of “amyloid-β 1-28: region of the amyloid-β protein”, the “effect on MTT reduction” value (PC12 cells [1]) is reported as “no effect”.
For “amyloid-β 1-40: region of the amyloid-β protein”, the “effect on MTT reduction” value (PC12 cells [1]) was “effect similar to that of amyloid-β 25-35”.
With “native α1-AT: native α1-antitrypsin, negative control” the “inhibition of the effect of amyloid-β 25-35 (neurotoxicity)” value (PC12 cells [3]) was “does not”.
For neurokinin B, the “binding to / recognition by the SEC receptor” value (SEC receptor [2]) is listed as “approximately similar affinities”.
For substance K, the “binding to / recognition by the SEC receptor” value (SEC receptor [2]) is listed as “approximately similar affinities”.
In the case of substance P, the “desensitization of the SEC receptor on neutrophils to chemotactic effects of amyloid-β” value (neutrophils) is given as “elicited homologous desensitization”, the neutrophil chemotactic effect (neutrophils) is given as “neutrophil chemotactic effects” and the “blocking of amyloid-β 25-35 effects on neurons” value (neurons) is given as “blocked”. The “binding to / recognition by the SEC receptor” value (SEC receptor [2]) was “bind to the SEC receptor; also recorded: approximately similar affinities”.
In the case of “α1 -AT-elastase complexes: complexes of α1-antitrypsin with elastase which compete for binding to the SEC receptor”, the “inhibition of the effect of amyloid-β 25-35 (neurotoxicity)” value (PC12 cells [3]) is reported as “inhibit the effect of amyloid-β 25-35” and the “competition for binding to the SEC receptor” value (SEC receptor [4]) is reported as “compete for binding to the SEC receptor”.
